Experimental data as given in patent US20020025940A1, “Methods and compositions for sensitive and rapid, functional identification of genomic polynucleotides and use for cellular assays in drug discovery” (Aurora Biosciences Corporation, priority 1997, published 2002).

Key:
Type in all cases: cell-based, human
BLEC Jurkat clones = experiment: Specificity of activated BLEC Jurkat clones, relative beta-lactamase activity; settings: PMA 8 nM, Thaps 1 microM, CsA 100 nM, PHA 10 microgram/ml
Source text: (§1) Isolated clones from PHA-induced (Example 6) and PHA-repressed (Example 7) procedures described above were characterized to determine the specificity of their modulation and time required for induction or repression. Clones were stimulated with multiple activators or inhibitors over a one to twenty-four hour time interval.
(§2) In this study, PMA, which is a PKC activator, Thapsigargin which increases intracellular calcium, PHA which activates the T-cell receptor pathway, and cyclosporin A which is a clinically approved immunosuppressant that inhibits the Ca^2+ dependent phosphates calcineurin were investigated for their ability to modulate beta-lactamase expression in PHA induced and repressed BLEC clones.

[1] = test system: clone C2 (3×NFAT response element linked to beta-lactamase, M1 muscurinic receptor); experiment: Relative beta-lactamase activity of control clone C2; settings: PMA 8 nM, Thaps 1 microM, CsA 100 nM, PHA 10 microgram/ml
Source text: as §1, §2

[2] = test system: induced BLEC Jurkat clones; experiment: Characterization of induced BLEC Jurkat clones, change in 460/530 ratio; settings: PHA 10 microgram/ml, Thaps 1 microM, PMA 8 nM, Anti-CD3 2 microgram/ml
Source text: These clones represent cells in which the trapping construct had integrated into a gene up regulated by PHA (T-cell) activation. Thus, these cells report the transcriptional activation of a gene upon cellular activation. Individual clones were identified and isolated by FACS using CCF2/AM to detect beta-lactamase activity. This clone isolation method, the induced sorting paradigm, used three sequential and independent stimulation and sorting protocols. […] These control cells were all green.
These isolated clones were expanded and tested for PHA inducibility by microscopic inspection with and without PHA stimulation in the presence of CCF2/AM. A total of fifty-five PHA inducible clones were identified using this procedure. The PHA inducibility for these clones ranged from a 1.5 to 40 fold change in the 460/530 ratio as compared to unstimulated control cells. Genomic Southern analysis using a DNA probe encoding beta-lactamase established that these clones represented 34 independent stable vector integration events. A list of clones obtained by the methods of the present invention and their characteristics is provided below in Table 6 and Table 7.
In addition to PHA inducible clones, Phobol 12-myristate 13-acetate (PMA) (Calbiochem), Thapsigargin (Thaps) (Calbiochem), and PMA+Thaps inducible clones were isolated using the general procedure set forth above using the indicated inducer rather than PHA. PMA is a specific activator of PKC (protein kinase C) and Thaps is a specific activator of intracellular calcium ion release (Thaps). These clones were isolated using three rounds of FACS using the general procedures described for the PHA inducible clones in Example 5. In such instances, other stimulants were substituted for PHA. PMA was provided at 8 nM, Thaps was provided at 1 microM. When these two stimulants were combined, their concentration was not changed. […] By using varied selection conditions, it is possible to isolate functionally distinct clones downstream of the desired signaling target.
Table 7 and Table 8 provide data similar to that provided in Table 5 for all of the clones obtained by the methods of Examples 5 to 7.

Question: For `C/C=C(/C)C(=O)O[C@H]1C(C)=C2[C@H]([C@@H]1OC(=O)CCCCCCC)[C@@](C)(OC(C)=O)C[C@H](OC(=O)CCC)[C@@]1(O)[C@H]2OC(=O)[C@@]1(C)O` [Thaps, Thapsigargin], which “Relative Beta-Lactamase Activity of the Clone by the Indicated Stimulus After 24 hours (% of maximum activated stimuli)” value (BLEC Jurkat clones; clone J32-6D4) is on record?
Answer: 1-2%

Question: What about the “Relative Beta-Lactamase Activity of the Clone by the Indicated Stimulus After 24 hours (% of maximum activated stimuli)” value (BLEC Jurkat clones; clone J83 97-PPTR2 (repressed paradigm)) of the same compound?
Answer: 85%

Question: What about the “Relative Beta-Lactamase Activity of the Clone by the Indicated Stimulus After 24 hours (% of maximum activated stimuli)” value (BLEC Jurkat clones; clone J83-PI9) of the same compound?
Answer: 100%

Question: And the “Relative Beta-Lactamase Activity of the Clone by the Indicated Stimulus After 24 hours (% of maximum activated stimuli)” value (BLEC Jurkat clones; clone J83-PTI8)?
Answer: 100%

Question: And the “Relative Beta-Lactamase Activity of the Clone by the Indicated Stimulus After 24 hours (% of maximum activated stimuli)” value (BLEC Jurkat clones; clone J389-PTI4)?
Answer: 5%

Question: And the “Relative Beta-Lactamase Activity of the Clone by the Indicated Stimulus After 24 hours (% of maximum activated stimuli)” value [1]?
Answer: 0%

Question: What about the “Change in 460/530 ratio in the indicated clone by the following activator” value (“Change in 460/530 ratio” for short) ([2]; clone J83PI1) of the same compound?
Answer: 3-4

Question: And the “Change in 460/530 ratio” value ([2]; clone J83PI2)?
Answer: 1-2

Question: What about the “Change in 460/530 ratio” value ([2]; clone J83PI3) of the same compound?
Answer: 6-7

Question: What about the “Change in 460/530 ratio” value ([2]; clone J83PI4) of the same compound?
Answer: 3-4

Question: And the “Change in 460/530 ratio” value ([2]; clone J83PI6)?
Answer: 7-8

Question: And the “Change in 460/530 ratio” value ([2]; clone J83PI7)?
Answer: 2

Question: And the “Change in 460/530 ratio” value ([2]; clone J83PI8)?
Answer: 1-2

Question: What about the “Change in 460/530 ratio” value ([2]; clone J83PI9) of the same compound?
Answer: 5-6

Question: What about the “Change in 460/530 ratio” value ([2]; clone J83PI13) of the same compound?
Answer: 2-3

Question: What about the “Change in 460/530 ratio” value ([2]; clone J83PI14) of the same compound?
Answer: 2

Question: And the “Change in 460/530 ratio” value ([2]; clone J83PI15)?
Answer: 2

Question: What about the “Change in 460/530 ratio” value ([2]; clone J83PI16) of the same compound?
Answer: 1-2

Question: And the “Change in 460/530 ratio” value ([2]; clone J83PI18)?
Answer: 7-8

Question: What about the “Change in 460/530 ratio” value ([2]; clone J83PI19) of the same compound?
Answer: 1-2

Question: What about the “Change in 460/530 ratio” value ([2]; clone J97PI1) of the same compound?
Answer: 3-4

Question: What about the “Change in 460/530 ratio” value ([2]; clone J97PI3) of the same compound?
Answer: 1-2

Question: And the “Change in 460/530 ratio” value ([2]; clone J97PI4)?
Answer: 1-2

Question: What about the “Change in 460/530 ratio” value ([2]; clone J97PI5) of the same compound?
Answer: 1.9

Question: What about the “Change in 460/530 ratio” value ([2]; clone J97PI6) of the same compound?
Answer: 4-6

Question: And the “Change in 460/530 ratio” value ([2]; clone J97PI7)?
Answer: 4-5

Question: And the “Change in 460/530 ratio” value ([2]; clone J97PI8)?
Answer: 3-4

Question: And the “Change in 460/530 ratio” value ([2]; clone J97PI9)?
Answer: 4-5

Question: And the “Change in 460/530 ratio” value ([2]; clone J97PI10)?
Answer: 3-4

Question: And the “Change in 460/530 ratio” value ([2]; clone J97PI11)?
Answer: 5-6

Question: What about the “Change in 460/530 ratio” value ([2]; clone J97PI12) of the same compound?
Answer: 5-6

Question: What about the “Change in 460/530 ratio” value ([2]; clone J97PI13) of the same compound?
Answer: 5-6

Question: What about the “Change in 460/530 ratio” value ([2]; clone J97PI14) of the same compound?
Answer: 3-4

Question: And the “Change in 460/530 ratio” value ([2]; clone J97PI15)?
Answer: 3-4

Question: And the “Change in 460/530 ratio” value ([2]; clone J97PI17)?
Answer: 7-8

Question: And the “Change in 460/530 ratio” value ([2]; clone J97PI18)?
Answer: 3-4

Question: What about the “Change in 460/530 ratio” value ([2]; clone J97PI19) of the same compound?
Answer: 2-3

Question: What about the “Change in 460/530 ratio” value ([2]; clone J97PI20) of the same compound?
Answer: 2-3

Question: What about the “Change in 460/530 ratio” value ([2]; clone J97PI21) of the same compound?
Answer: 2-3

Question: And the “Change in 460/530 ratio” value ([2]; clone J97PI22)?
Answer: 5-7

Question: What about the “Change in 460/530 ratio” value ([2]; clone J97PI23) of the same compound?
Answer: 4-5

Question: And the “Change in 460/530 ratio” value ([2]; clone J97PI24)?
Answer: 3-4

Question: What about the “Change in 460/530 ratio” value ([2]; clone J97PI116) of the same compound?
Answer: 3-4

Question: And the “Change in 460/530 ratio” value ([2]; clone J325B11)?
Answer: 1-2

Question: And the “Change in 460/530 ratio” value ([2]; clone J326C9)?
Answer: 1-2

Question: And the “Change in 460/530 ratio” value ([2]; clone J326D4)?
Answer: 0

Question: And the “Change in 460/530 ratio” value ([2]; clone J389PM2)?
Answer: 3-4

Question: What about the “Change in 460/530 ratio” value ([2]; clone J389PM3) of the same compound?
Answer: 2-3

Question: What about the “Change in 460/530 ratio” value ([2]; clone J389PM5) of the same compound?
Answer: 3-4

Question: And the “Change in 460/530 ratio” value ([2]; clone J389PM7)?
Answer: 2-3

Question: And the “Change in 460/530 ratio” value ([2]; clone J389PM8)?
Answer: 3-4

Question: And the “Change in 460/530 ratio” value ([2]; clone J389PT4)?
Answer: 10

Question: And the “Change in 460/530 ratio” value ([2]; clone J389PTt)?
Answer: 3-4

Question: And the “Change in 460/530 ratio” value ([2]; clone J389TI1)?
Answer: 2-3

Question: And the “Change in 460/530 ratio” value ([2]; clone J389TI4)?
Answer: 3-4
